#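 Five compound concentrations were applied to cells in 96-well plates for 48 hours; endpoints were derived by simple linear interpolation of the resulting dose-response curve. Definition used: TGI = concentration required for complete inhibition of growth.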
# Key:
# Assay in all cases: NCI tumour cell line growth inhibition, 48 h
# [1] = system: MDA-MB-231 breast
# [2] = system: SK-MEL-2 melanoma
# [3] = system: HOP-92 NSCLC
# [4] = system: EKVX NSCLC
# [5] = system: OVCAR-5 ovarian
# [6] = system: IGROV1 ovarian
# [7] = system: OVCAR-8 ovarian
# [8] = system: PC-3 prostate
# [9] = system: HL-60(TB) leukemia
# [10] = system: SR leukemia
# [11] = system: UACC-257 melanoma
# [12] = system: RPMI-8226 leukemia
# [13] = system: A549 NSCLC
# [14] = system: SF-295 CNS
# [15] = system: SK-OV-3 ovarian
# [16] = system: M14 melanoma
# [17] = system: K-562 leukemia
# [18] = system: SK-MEL-28 melanoma
# [19] = system: HCT-15 colon
# [20] = system: HCT-116 colon
# [21] = system: NCI-H226 lung
# [22] = system: COLO 205 colon
# [23] = system: T-47D breast
# [24] = system: MDA-N
# [25] = system: SN12C renal
# [26] = system: TK-10 renal
# [27] = system: LOX IMVI melanoma
# [28] = system: MALME-3M melanoma
# [29] = system: MOLT-4 leukemia
# [30] = system: MDA-MB-435
# [31] = system: BT-549 breast
# [32] = system: NCI-H460 lung
# [33] = system: SNB-19 CNS
# [34] = system: MCF7 breast
# [35] = system: SF-539 CNS
# [36] = system: U251 CNS
# [37] = system: NCI-H23 lung
# [38] = system: CCRF-CEM leukemia
# [39] = system: SK-MEL-5 melanoma
# [40] = system: SF-268 CNS
# [41] = system: HCC-2998 colon
# [42] = system: OVCAR-3 ovarian
# [43] = system: KM12 colon
# [44] = system: HT29 colon
# [45] = system: NCI-H522 lung
# [46] = system: CAKI-1 renal
# [47] = system: DU-145 prostate
# [48] = system: SNB-75 CNS
# [49] = system: A498 renal
# [50] = system: SW-620 colon
# [51] = system: UACC-62 melanoma
# [52] = system: 786-0 renal
# [53] = system: NCI/ADR-RES ovarian
# [54] = system: OVCAR-4 ovarian
# [55] = system: RXF 393 renal
# [56] = system: ACHN renal
# [57] = system: HS 578T breast
# [58] = system: UO-31 renal
# [59] = system: HOP-62 NSCLC
structure (smiles),measurement,setting,value
O=[N+]([O-])c1ccc2c(c1)C1=NN(c3ccccc3)C(c3ccccc3Br)C1CCC2 (stereo not drawn),TGI,[1],> 50000 nM
same,TGI,[2],> 50000 nM
same,TGI,[3],48100 nM
same,TGI,[4],> 50000 nM
same,TGI,[5],> 50000 nM
same,TGI,[6],> 50000 nM
same,TGI,[7],> 50000 nM
same,TGI,[8],> 50000 nM
same,TGI,[9],24100 nM
same,TGI,[10],> 50000 nM
same,TGI,[11],> 50000 nM
same,TGI,[12],48400 nM
same,TGI,[13],> 50000 nM
same,TGI,[14],> 50000 nM
same,TGI,[15],> 50000 nM
same,TGI,[16],> 50000 nM
same,TGI,[17],> 50000 nM
same,TGI,[18],> 50000 nM
same,TGI,[19],> 50000 nM
same,TGI,[20],> 50000 nM
same,TGI,[21],> 50000 nM
same,TGI,[22],> 50000 nM
same,TGI,[23],47300 nM
same,TGI,[24],> 50000 nM
same,TGI,[25],> 50000 nM
same,TGI,[26],> 50000 nM
same,TGI,[27],> 50000 nM
same,TGI,[28],> 50000 nM
same,TGI,[29],> 50000 nM
same,TGI,[30],> 50000 nM
same,TGI,[31],35000 nM
same,TGI,[32],> 50000 nM
same,TGI,[33],> 50000 nM
same,TGI,[34],> 50000 nM
same,TGI,[35],> 50000 nM
same,TGI,[36],> 50000 nM
same,TGI,[37],> 50000 nM
same,TGI,[38],27400 nM
same,TGI,[39],> 50000 nM
same,TGI,[40],> 50000 nM
same,TGI,[41],> 50000 nM
same,TGI,[42],> 50000 nM
same,TGI,[43],> 50000 nM
same,TGI,[44],> 50000 nM
same,TGI,[45],> 50000 nM
same,TGI,[46],> 50000 nM
same,TGI,[47],> 50000 nM
same,TGI,[48],> 50000 nM
same,TGI,[49],> 50000 nM
same,TGI,[50],> 50000 nM
same,TGI,[51],34400 nM
same,TGI,[52],> 50000 nM
same,TGI,[53],45600 nM
same,TGI,[54],> 50000 nM
same,TGI,[55],43000 nM
same,TGI,[56],> 50000 nM
same,TGI,[57],> 50000 nM
same,TGI,[58],> 50000 nM
same,TGI,[59],> 50000 nM
COC1=C(C)C(=O)c2c(c(COC(N)=O)c3n2CC(OC(C)=O)C3OC(C)=O)C1=O (stereo not drawn),TGI,[1],515 nM
same,TGI,[2],387 nM
same,TGI,[3],540 nM
same,TGI,[4],678 nM
same,TGI,[5],652 nM
same,TGI,[6],402 nM
same,TGI,[7],373 nM
same,TGI,[8],402 nM
same,TGI,[9],202 nM
same,TGI,[10],44.2 nM
same,TGI,[11],375 nM
same,TGI,[12],1360 nM
same,TGI,[13],1600 nM
same,TGI,[14],657 nM
same,TGI,[15],1570 nM
same,TGI,[16],514 nM
same,TGI,[17],> 100000 nM
same,TGI,[18],816 nM
same,TGI,[19],69.2 nM
same,TGI,[20],129 nM
same,TGI,[21],1390 nM
same,TGI,[22],314 nM
same,TGI,[23],3110 nM
same,TGI,[24],290 nM
same,TGI,[25],1090 nM
same,TGI,[26],1560 nM
same,TGI,[27],1060 nM
same,TGI,[28],156 nM
same,TGI,[29],2030 nM
same,TGI,[30],415 nM
same,TGI,[31],1210 nM
same,TGI,[32],235 nM
same,TGI,[33],2090 nM
same,TGI,[34],1230 nM
same,TGI,[35],165 nM
same,TGI,[36],789 nM
same,TGI,[37],250 nM
same,TGI,[38],13800 nM
same,TGI,[39],392 nM
same,TGI,[40],674 nM
same,TGI,[41],262 nM
same,TGI,[42],416 nM
same,TGI,[43],939 nM
same,TGI,[44],250 nM
same,TGI,[45],37.9 nM
same,TGI,[46],< 27.8 nM
same,TGI,[47],265 nM
same,TGI,[48],1090 nM
same,TGI,[49],1340 nM
same,TGI,[50],166 nM
same,TGI,[51],245 nM
same,TGI,[52],58.1 nM
same,TGI,[53],979 nM
same,TGI,[54],1030 nM
same,TGI,[55],428 nM
same,TGI,[56],1030 nM
same,TGI,[57],1090 nM
same,TGI,[58],490 nM
same,TGI,[59],563 nM
